Values quoted from earlier work in patent US20250235391A1, “Lip Balm Containing Caffeine, Nicotine or Testosterone” (Shear Kershman Laboratories, Inc., priority 2018, published 2025).

SMILES: CCCCCc1cc(O)c2c(c1)OC(C)(C)[C@@H]1CCC(C)=C[C@@H]21 [Dronabinol, A9-tetrahydrocannabinol]
- duration of action for psychoactive effects (after oral administration): 4 to 6 h
- duration of appetite stimulant effect (after oral administration): ≥ 24 h
- peak effect (time) (after oral administration): 2 to 4 h
- maximal plasma levels (oral dosing of 20 mg in a sesame oil formulation): around 10 ng/ml
- administered dose reaching systemic circulation (oral, first pass hepatic metabolism and high lipid solubility): 10-20%
- absorbed after a single oral dose (single oral dose): 90-95%
